Assays:
[1] = test system: HIV-1 NL43; assay: HIV inhibition assay in P4C5 HeLa cells (β-gal activity); assay type: cell-based; details: CXCR4-tropic strain
[2] = test system: HIV-1 NLAD8; assay: as above; assay type: cell-based; details: CCR5-tropic virus
[3] = test system: VSV-G pseudotyped virus; assay type: cell-based, HIV (VSV)

Cc1ccnc2c1NC(=O)c1cccnc1N2C1CC1 [Nevirapine, reference compound]
blocks all viruses tested: inhibition of infection with HIV-1 NL43 [1] | inhibition of infection with HIV-1 NLAD8 [2] | inhibition of infection with VSV-G pseudotyped virus [3]

— patent US9902761B2, “Polypeptides, nucleic acids and uses thereof” (AGENCY FOR SCIENCE, TECHNOLOGY AND RESEARCH, priority 2013, dated 2018)
